Reference: PubChem BioAssay (NCI)
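Values below derive from 48-hour exposures of cells grown in 96-well plates, with endpoints linearly interpolated between the two concentrations bracketing the appropriate inhibition level. GI50: concentration for 50% inhibition of growth. At the TGI there is no net growth.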

Legend:
Assay in all cases: NCI-60 cell line screen, 48 h
786-0 renal = system: 786-0 renal
A498 renal = system: A498 renal
A549 NSCLC = system: A549 NSCLC
ACHN renal = system: ACHN renal
BT-549 breast = system: BT-549 breast
CAKI-1 renal = system: CAKI-1 renal
CCRF-CEM leukemia = system: CCRF-CEM leukemia
COLO 205 colon = system: COLO 205 colon
DU-145 prostate = system: DU-145 prostate
EKVX NSCLC = system: EKVX NSCLC
HCC-2998 colon = system: HCC-2998 colon
HCT-116 colon = system: HCT-116 colon
HCT-15 colon = system: HCT-15 colon
HL-60(TB) leukemia = system: HL-60(TB) leukemia
HOP-62 NSCLC = system: HOP-62 NSCLC
HOP-92 NSCLC = system: HOP-92 NSCLC
HS 578T breast = system: HS 578T breast
HT29 colon = system: HT29 colon
IGROV1 ovarian = system: IGROV1 ovarian
K-562 leukemia = system: K-562 leukemia
KM12 colon = system: KM12 colon
LOX IMVI melanoma = system: LOX IMVI melanoma
M14 melanoma = system: M14 melanoma
MALME-3M melanoma = system: MALME-3M melanoma
MCF7 breast = system: MCF7 breast
MDA-MB-231 breast = system: MDA-MB-231 breast
MDA-MB-435 = system: MDA-MB-435
MOLT-4 leukemia = system: MOLT-4 leukemia
NCI-H226 lung = system: NCI-H226 lung
NCI-H23 lung = system: NCI-H23 lung
NCI-H460 lung = system: NCI-H460 lung
NCI-H522 lung = system: NCI-H522 lung
NCI/ADR-RES ovarian = system: NCI/ADR-RES ovarian
OVCAR-3 ovarian = system: OVCAR-3 ovarian
OVCAR-4 ovarian = system: OVCAR-4 ovarian
OVCAR-5 ovarian = system: OVCAR-5 ovarian
OVCAR-8 ovarian = system: OVCAR-8 ovarian
PC-3 prostate = system: PC-3 prostate
RPMI-8226 leukemia = system: RPMI-8226 leukemia
RXF 393 renal = system: RXF 393 renal
SF-268 CNS = system: SF-268 CNS
SF-295 CNS = system: SF-295 CNS
SF-539 CNS = system: SF-539 CNS
SK-MEL-2 melanoma = system: SK-MEL-2 melanoma
SK-MEL-28 melanoma = system: SK-MEL-28 melanoma
SK-MEL-5 melanoma = system: SK-MEL-5 melanoma
SK-OV-3 ovarian = system: SK-OV-3 ovarian
SN12C renal = system: SN12C renal
SNB-19 CNS = system: SNB-19 CNS
SNB-75 CNS = system: SNB-75 CNS
SR leukemia = system: SR leukemia
SW-620 colon = system: SW-620 colon
T-47D breast = system: T-47D breast
TK-10 renal = system: TK-10 renal
U251 CNS = system: U251 CNS
UACC-257 melanoma = system: UACC-257 melanoma
UACC-62 melanoma = system: UACC-62 melanoma
UO-31 renal = system: UO-31 renal

Structure (SMILES): O=C(Nc1ccc(Br)cc1F)c1cc(Cl)ccc1O
- GI50 (786-0 renal): 2540 nM
- TGI (786-0 renal): 7620 nM
- GI50 (A498 renal): 160 nM
- TGI (A498 renal): 604 nM
- GI50 (A549 NSCLC): 2780 nM
- TGI (A549 NSCLC): > 100000 nM
- GI50 (ACHN renal): 619 nM
- TGI (ACHN renal): > 31300 nM
- GI50 (BT-549 breast): 440 nM
- TGI (BT-549 breast): 2100 nM
- GI50 (CAKI-1 renal): 319 nM
- TGI (CAKI-1 renal): 2850 nM
- GI50 (CCRF-CEM leukemia): 2080 nM
- TGI (CCRF-CEM leukemia): 7630 nM
- GI50 (COLO 205 colon): 2740 nM
- TGI (COLO 205 colon): 8200 nM
- GI50 (DU-145 prostate): 899 nM
- TGI (DU-145 prostate): > 100000 nM
- GI50 (EKVX NSCLC): 1120 nM
- TGI (EKVX NSCLC): > 26200 nM
- GI50 (HCC-2998 colon): 2790 nM
- TGI (HCC-2998 colon): 12700 nM
- GI50 (HCT-116 colon): 522 nM
- TGI (HCT-116 colon): 2450 nM
- GI50 (HCT-15 colon): 972 nM
- TGI (HCT-15 colon): 10500 nM
- GI50 (HL-60(TB) leukemia): 481 nM
- TGI (HL-60(TB) leukemia): 3190 nM
- GI50 (HOP-62 NSCLC): 1640 nM
- TGI (HOP-62 NSCLC): 5220 nM
- GI50 (HOP-92 NSCLC): 174 nM
- TGI (HOP-92 NSCLC): 557 nM
- GI50 (HS 578T breast): 327 nM
- TGI (HS 578T breast): 2810 nM
- GI50 (HT29 colon): 3090 nM
- TGI (HT29 colon): 31500 nM
- GI50 (IGROV1 ovarian): 388 nM
- TGI (IGROV1 ovarian): > 100000 nM
- GI50 (K-562 leukemia): 489 nM
- TGI (K-562 leukemia): > 50700 nM
- GI50 (KM12 colon): 2140 nM
- TGI (KM12 colon): 5430 nM
- GI50 (LOX IMVI melanoma): 501 nM
- TGI (LOX IMVI melanoma): 3760 nM
- GI50 (M14 melanoma): 585 nM
- TGI (M14 melanoma): 3580 nM
- GI50 (MALME-3M melanoma): 434 nM
- TGI (MALME-3M melanoma): 2670 nM
- GI50 (MCF7 breast): 1840 nM
- TGI (MCF7 breast): > 100000 nM
- GI50 (MDA-MB-231 breast): 554 nM
- TGI (MDA-MB-231 breast): 5230 nM
- GI50 (MDA-MB-435): 710 nM
- TGI (MDA-MB-435): 5880 nM
- GI50 (MOLT-4 leukemia): 1760 nM
- TGI (MOLT-4 leukemia): 5110 nM
- GI50 (NCI-H226 lung): 1200 nM
- TGI (NCI-H226 lung): 4570 nM
- GI50 (NCI-H23 lung): 492 nM
- TGI (NCI-H23 lung): 5140 nM
- GI50 (NCI-H460 lung): 487 nM
- TGI (NCI-H460 lung): > 66500 nM
- GI50 (NCI-H522 lung): 361 nM
- TGI (NCI-H522 lung): 4340 nM
- GI50 (NCI/ADR-RES ovarian): 749 nM
- TGI (NCI/ADR-RES ovarian): 5670 nM
- GI50 (OVCAR-3 ovarian): 476 nM
- TGI (OVCAR-3 ovarian): > 26600 nM
- GI50 (OVCAR-4 ovarian): 509 nM
- TGI (OVCAR-4 ovarian): > 100000 nM
- GI50 (OVCAR-5 ovarian): 3670 nM
- TGI (OVCAR-5 ovarian): > 100000 nM
- GI50 (OVCAR-8 ovarian): 1060 nM
- TGI (OVCAR-8 ovarian): 12800 nM
- GI50 (PC-3 prostate): 1870 nM
- TGI (PC-3 prostate): 6680 nM
- GI50 (RPMI-8226 leukemia): 342 nM
- TGI (RPMI-8226 leukemia): 1880 nM
- GI50 (RXF 393 renal): 852 nM
- TGI (RXF 393 renal): 3990 nM
- GI50 (SF-268 CNS): 676 nM
- TGI (SF-268 CNS): 9960 nM
- GI50 (SF-295 CNS): 1770 nM
- TGI (SF-295 CNS): 3650 nM
- GI50 (SF-539 CNS): 594 nM
- TGI (SF-539 CNS): 5850 nM
- GI50 (SK-MEL-2 melanoma): 372 nM
- TGI (SK-MEL-2 melanoma): 2000 nM
- GI50 (SK-MEL-28 melanoma): 399 nM
- TGI (SK-MEL-28 melanoma): 2070 nM
- GI50 (SK-MEL-5 melanoma): 273 nM
- TGI (SK-MEL-5 melanoma): 815 nM
- GI50 (SK-OV-3 ovarian): 441 nM
- TGI (SK-OV-3 ovarian): 2200 nM
- GI50 (SN12C renal): 491 nM
- TGI (SN12C renal): 5680 nM
- GI50 (SNB-19 CNS): 418 nM
- TGI (SNB-19 CNS): > 100000 nM
- GI50 (SNB-75 CNS): 202 nM
- TGI (SNB-75 CNS): 2400 nM
- GI50 (SR leukemia): 541 nM
- TGI (SR leukemia): > 30100 nM
- GI50 (SW-620 colon): 1050 nM
- TGI (SW-620 colon): > 39200 nM
- GI50 (T-47D breast): 466 nM
- TGI (T-47D breast): 4830 nM
- GI50 (TK-10 renal): 3500 nM
- TGI (TK-10 renal): 10200 nM
- GI50 (U251 CNS): 709 nM
- TGI (U251 CNS): > 100000 nM
- GI50 (UACC-257 melanoma): 731 nM
- TGI (UACC-257 melanoma): 4820 nM
- GI50 (UACC-62 melanoma): 292 nM
- TGI (UACC-62 melanoma): 1160 nM
- GI50 (UO-31 renal): 207 nM
- TGI (UO-31 renal): 2360 nM
